PMC6274279, “Novel Cholinesterase Inhibitors Based on O-Aromatic N,N-Disubstituted Carbamates and Thiocarbamates” (Molecules, 2016)
Like-named read-outs stand apart in the source and are kept apart here.

How the values were obtained:
AChE from electric eel = molecular target: T1, AChE from electric eel (Electrophorus electricus, UniProt O42275); assay: Acetylcholinesterase inhibition, spectrophotometric Ellman's method; type: biochemical, electric eel (Electrophorus electricus L.); settings: for Selectivity Index for AChE: ratio of cellular toxicity (HepG2 IC50) and IC50 for AChE
T1 construct: Acetylcholinesterase was obtained from electric eel (Electrophorus electricus L.); from tissue
T1 sequence (O42275 24-633): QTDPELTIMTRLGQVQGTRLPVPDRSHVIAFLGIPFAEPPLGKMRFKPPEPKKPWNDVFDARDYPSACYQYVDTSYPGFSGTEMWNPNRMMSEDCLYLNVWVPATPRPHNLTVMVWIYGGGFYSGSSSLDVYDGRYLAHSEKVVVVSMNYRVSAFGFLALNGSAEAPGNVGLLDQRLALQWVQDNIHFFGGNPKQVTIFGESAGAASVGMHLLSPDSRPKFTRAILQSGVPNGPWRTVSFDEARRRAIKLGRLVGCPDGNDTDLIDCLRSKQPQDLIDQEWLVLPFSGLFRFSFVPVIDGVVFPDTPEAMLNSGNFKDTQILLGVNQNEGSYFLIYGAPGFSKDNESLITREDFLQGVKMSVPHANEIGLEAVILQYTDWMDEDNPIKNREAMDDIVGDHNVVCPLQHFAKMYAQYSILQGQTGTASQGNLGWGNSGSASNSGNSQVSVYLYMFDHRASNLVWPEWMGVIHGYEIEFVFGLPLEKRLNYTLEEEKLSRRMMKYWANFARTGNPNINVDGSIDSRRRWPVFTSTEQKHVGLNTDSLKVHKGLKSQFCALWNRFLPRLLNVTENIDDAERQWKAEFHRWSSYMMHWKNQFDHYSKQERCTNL
Procedure: (§1) The IC50 values were determined using the spectrophotometric Ellman’s method, which is a simple and rapid method to determine the SH and -S-S- groups content in proteins. This method is widely used for the evaluation of cholinesterase activity and screening the efficiency of ChE inhibitors. Cholinesterase activity is measured indirectly by quantifying the concentration of the 5-mercapto-2-nitrobenzoic acid ion formed in the reaction between the thiol reagent 5,5′-dithiobis(2-nitrobenzoic acid) and thiocholine, a product of substrate hydrolysis (i.e., acetylthiocholine, ATCh) by cholinesterases. Ellman’s method was modified slightly according to Zdrazilova et al..
(§2) The inhibitory potency of fifteen carbamates and five thiocarbamates was evaluated for AChE from electric eel and BChE from equine serum.
(§3) The IC50 values were determined using the spectrophotometric Ellman’s method. All of the tested compounds were dissolved in 0.01 M dimethyl sulphoxide and then diluted in demineralised water to 0.001 M and 0.0001 M. Ellman’s method was modified slightly according to Zdrazilova et al.. Acetylcholinesterase was obtained from electric eel (Electrophorus electricus L.) and butyrylcholinesterase was from equine serum.

BChE from equine serum = molecular target: T2, BChE from equine serum (Equus caballus, UniProt P81908); assay: Butyrylcholinesterase inhibition, spectrophotometric Ellman's method; type: biochemical; settings: for Selectivity to BChE: IC50 for AChE/IC50 for BChE; for Selectivity Index for BChE: ratio of cellular toxicity (HepG2 IC50) and IC50 for BChE
T2 construct: butyrylcholinesterase was from equine serum; from tissue; host or cells: equine serum
T2 sequence (P81908 whole entry): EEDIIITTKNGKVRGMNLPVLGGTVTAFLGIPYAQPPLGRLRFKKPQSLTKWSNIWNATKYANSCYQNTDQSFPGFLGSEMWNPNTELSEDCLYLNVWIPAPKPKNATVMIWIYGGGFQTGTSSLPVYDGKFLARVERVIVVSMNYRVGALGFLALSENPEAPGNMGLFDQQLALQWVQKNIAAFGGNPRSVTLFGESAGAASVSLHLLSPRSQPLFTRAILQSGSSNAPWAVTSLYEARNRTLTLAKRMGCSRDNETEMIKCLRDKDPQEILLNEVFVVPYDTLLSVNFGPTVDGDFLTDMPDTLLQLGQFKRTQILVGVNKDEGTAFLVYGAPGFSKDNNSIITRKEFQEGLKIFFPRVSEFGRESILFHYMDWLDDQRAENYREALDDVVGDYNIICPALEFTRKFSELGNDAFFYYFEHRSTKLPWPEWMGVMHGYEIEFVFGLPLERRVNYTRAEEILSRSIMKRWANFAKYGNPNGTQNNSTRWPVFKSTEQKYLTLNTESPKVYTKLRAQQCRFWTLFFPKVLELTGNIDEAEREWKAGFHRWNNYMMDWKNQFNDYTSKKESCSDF
Procedure: as §1, §2, §3

HepG2 cells = settings: cited from earlier work
[1] = cytotoxicity determined previously, read-out: IC50 for HepG2
[2] = approximate value, read-out: IC50 values (cytotoxicity, HepG2)

CN(C)C(=O)Oc1ccc(Cl)cc1C(=O)Nc1ccc(Cl)cc1 [1a]
IC50 (AChE from electric eel): 72.9 ± 1.06 µM
IC50 (BChE from equine serum): 88.4 ± 1.27 µM
Selectivity to BChE (BChE from equine serum): 0.8

CN(C)C(=S)Oc1ccc(Cl)cc1C(=O)Nc1ccc(Cl)cc1 [1b, O-{4-Chloro-2-[(4-chlorophenyl)carbamoyl]phenyl} dimethylcarbamothioate]
IC50 (HepG2 cells; [1]): 83.5 µM
IC50 (AChE from electric eel): 39 ± 1.11 µM
Selectivity Index for AChE (AChE from electric eel): 2.1
IC50 (BChE from equine serum): 51.4 ± 1.65 µM
Selectivity to BChE (BChE from equine serum): 0.8
Selectivity Index for BChE (BChE from equine serum): 1.6

CN(C(=O)Oc1ccc(Cl)cc1C(=O)Nc1ccc(Cl)cc1)c1ccccc1 [1c]
IC50 (HepG2 cells; [1]): 289 µM
IC50 (AChE from electric eel): 74.8 ± 2.95 µM
IC50 (BChE from equine serum): 4.2 ± 0.18 µM
Selectivity to BChE (BChE from equine serum): 17.8
Selectivity Index for BChE (BChE from equine serum): 68.8

O=C(Nc1ccc(Cl)cc1)c1cc(Cl)ccc1OC(=O)N(c1ccccc1)c1ccccc1 [1d]
IC50 (AChE from electric eel): 54.8 ± 1.43 µM
IC50 (BChE from equine serum): 106 ± 3.64 µM

CN(C)C(=O)Oc1ccc(Cl)cc1C(=O)Nc1ccc(Br)cc1 [2a]
IC50 (AChE from electric eel): 62.4 ± 1.36 µM
IC50 (BChE from equine serum): 54.21 ± 0.3 µM
Selectivity to BChE (BChE from equine serum): 1.2

CN(C)C(=S)Oc1ccc(Cl)cc1C(=O)Nc1ccc(Br)cc1 [2b]
IC50 (AChE from electric eel): 59.1 ± 2.13 µM
IC50 (BChE from equine serum): 54.64 ± 0.42 µM
Selectivity to BChE (BChE from equine serum): 1.1

CN(C(=O)Oc1ccc(Cl)cc1C(=O)Nc1ccc(Br)cc1)c1ccccc1 [2c, 2-[(4-bromophenyl)carbamoyl]-4-chlorophenyl methyl(phenyl)carbamate]
IC50 (HepG2 cells; [1]): 945 µM
IC50 (AChE from electric eel): 81.6 ± 2.92 µM
Selectivity Index for AChE (AChE from electric eel): 11.6
IC50 (BChE from equine serum): 4.3 ± 0.51 µM
Selectivity to BChE (BChE from equine serum): 19.0

O=C(Nc1ccc(Br)cc1)c1cc(Cl)ccc1OC(=O)N(c1ccccc1)c1ccccc1 [2d]
IC50 (AChE from electric eel): 63.3 ± 0.95 µM
IC50 (BChE from equine serum): 145 ± 29 µM

CN(C)C(=O)Oc1ccc(Cl)cc1C(=O)Nc1ccc(F)cc1 [3a, 4-chloro-2-[(4-fluorophenyl)carbamoyl]phenyl dimethylcarbamate]
IC50 (AChE from electric eel): 76.2 ± 2.87 µM
IC50 (BChE from equine serum): 311 ± 4.5 µM

CN(C)C(=S)Oc1ccc(Cl)cc1C(=O)Nc1ccc(F)cc1 [3b, O-{4-chloro-2-[(4-fluorophenyl)carbamoyl]phenyl} dimethylcarbamothioate]
IC50 (AChE from electric eel): 89.7 ± 4.68 µM
IC50 (BChE from equine serum): 91.4 ± 5.45 µM
Selectivity to BChE (BChE from equine serum): 1.0

CN(C(=O)Oc1ccc(Cl)cc1C(=O)Nc1ccc(F)cc1)c1ccccc1 [3c]
IC50 (HepG2 cells; [1]): 512 µM
IC50 (AChE from electric eel): 62.5 ± 5.03 µM
Selectivity Index for AChE (AChE from electric eel): 8.2
IC50 (BChE from equine serum): 7.34 ± 0.14 µM
Selectivity to BChE (BChE from equine serum): 8.5
Selectivity Index for BChE (BChE from equine serum): 69.8

O=C(Nc1ccc(F)cc1)c1cc(Cl)ccc1OC(=O)N(c1ccccc1)c1ccccc1 [3d]
IC50 (AChE from electric eel): 49 ± 3.88 µM
IC50 (BChE from equine serum): 15.63 ± 0.11 µM
Selectivity to BChE (BChE from equine serum): 3.1

CN(C)C(=O)Oc1ccc(Cl)cc1C(=O)Nc1ccc(C(F)(F)F)cc1 [4a, 4-chloro-2-{[4-(trifluoro-methyl)phenyl]carbamoyl}phenyl dimethylcarbamate]
IC50 (HepG2 cells; [2]): ~6000 µM
IC50 (HepG2 cells; [1]): 6510 µM
IC50 (AChE from electric eel): 49 ± 0.54 µM
IC50 (BChE from equine serum): 28.1 ± 0.86 µM
Selectivity to BChE (BChE from equine serum): 1.7

CN(C)C(=S)Oc1ccc(Cl)cc1C(=O)Nc1ccc(C(F)(F)F)cc1 [4b]
IC50 (HepG2 cells; [1]): 67.3 µM
IC50 (AChE from electric eel): 42 ± 0.55 µM
IC50 (BChE from equine serum): 36.22 ± 0.28 µM
Selectivity to BChE (BChE from equine serum): 1.2
Selectivity Index for BChE (BChE from equine serum): 1.9

CN(C(=O)Oc1ccc(Cl)cc1C(=O)Nc1ccc(C(F)(F)F)cc1)c1ccccc1 [4c]
IC50 (HepG2 cells; [1]): > 100 µM
IC50 (AChE from electric eel): 49.9 ± 2.76 µM
IC50 (BChE from equine serum): 1.97 ± 0.02 µM
Selectivity Index for BChE (BChE from equine serum): ˃50.8

O=C(Nc1ccc(C(F)(F)F)cc1)c1cc(Cl)ccc1OC(=O)N(c1ccccc1)c1ccccc1 [4d]
IC50 (AChE from electric eel): 47.4 ± 2.78 µM
IC50 (BChE from equine serum): 49 ± 0.17 µM
Selectivity to BChE (BChE from equine serum): 1.0

CN(C)C(=O)Oc1ccccc1C(=O)Nc1ccccc1 [5a]
IC50 (HepG2 cells; [2]): ~6000 µM
IC50 (HepG2 cells; [1]): 5990 µM
IC50 (AChE from electric eel): 57.7 ± 1.6 µM
IC50 (BChE from equine serum): 83.6 ± 6.84 µM
Selectivity to BChE (BChE from equine serum): 0.7
Selectivity Index for BChE (BChE from equine serum): 71.6

CN(C)C(=S)Oc1ccccc1C(=O)Nc1ccccc1 [5b]
IC50 (AChE from electric eel): 61.9 ± 6.56 µM
IC50 (BChE from equine serum): 26.6 ± 2.78 µM
Selectivity to BChE (BChE from equine serum): 2.3

CN(C(=O)Oc1ccccc1C(=O)Nc1ccccc1)c1ccccc1 [5c]
IC50 (AChE from electric eel): 55 ± 2.46 µM
IC50 (BChE from equine serum): 11.4 ± 0.48 µM
Selectivity to BChE (BChE from equine serum): 4.8

O=C(Nc1ccccc1)c1ccccc1OC(=O)N(c1ccccc1)c1ccccc1 [5d, 2-(phenylcarbamoyl)phenyl diphenylcarbamate]
IC50 (HepG2 cells; [1]): 211 µM
IC50 (AChE from electric eel): 53.8 ± 4.26 µM
IC50 (BChE from equine serum): 1.6 ± 0.01 µM
Selectivity Index for BChE (BChE from equine serum): 131.9
